Measured values reported in ChEMBL document CHEMBL4665876, “Protection of all cleavable sites of DNA with the multiple CGCG or continuous CGG sites from the restriction enzyme, indicative of simultaneous binding of small ligands” (Bioorg Med Chem, 2020).
Calls of active or inactive are those of the source. The calls are words filed in the database; no cut-off is given here.

Key:
Format in all cases: nucleic-acid assay
[1] = tested on: Nucleic Acid; experiment: Binding affinity to GC5(2) of DNA (unknown origin) assessed as inhibition of ACCII mediated DNA hydrolysis at 10 to 50 uM preincubated for 14 hrs followed by ACCII addition and measured after 120 mins by SYBR staining-based PAGE analysis; details: Homo sapiens; dose microM 10-50, time 14.0 hrs
[2] = tested on: Nucleic Acid; experiment: Binding affinity to d(CGG)16 of DNA (unknown origin) assessed as inhibition of Fnu4HI mediated DNA hydrolysis at 25 uM preincubated for 14 hrs followed by Fnu4HI addition and measured after 60 mins by SYBR staining-based PAGE analysis; details: Homo sapiens
[3] = tested on: Nucleic Acid; experiment: Binding affinity to d(CGG)10 of DNA (unknown origin) assessed as inhibition of Fnu4HI mediated DNA hydrolysis at 25 uM preincubated for 14 hrs followed by Fnu4HI addition and measured after 60 mins by SYBR staining-based PAGE analysis; details: Homo sapiens
[4] = tested on: Nucleic Acid; experiment: Binding affinity to CGCG site of DNA (unknown origin) at 10 uM by PAGE analysis
[5] = tested on: Nucleic Acid; experiment: Binding affinity to GC5(5) of DNA (unknown origin) assessed as inhibition of ACCII mediated DNA hydrolysis at 10 to 50 uM preincubated for 14 hrs followed by ACCII addition and measured after 120 mins by SYBR staining-based PAGE analysis; details: Homo sapiens; dose microM 10-50, time 14.0 hrs
[6] = tested on: Nucleic Acid; experiment: Binding affinity to GC2(5) site of DNA (unknown origin) assessed as inhibition of ACCII mediated DNA hydrolysis at 50 uM preincubated for 14 hrs followed by ACCII addition and measured after 120 mins by SYBR staining-based PAGE analysis; details: Homo sapiens
[7] = tested on: Nucleic Acid; experiment: Binding affinity to GC1 of DNA (unknown origin) assessed as inhibition of ACCII mediated DNA hydrolysis at 50 uM preincubated for 14 hrs followed by ACCII addition and measured after 120 mins by SYBR staining-based PAGE analysis; details: Homo sapiens
[8] = tested on: Nucleic Acid; experiment: Binding affinity to d(CGG) of DNA (unknown origin) assessed as inhibition of Fnu4HI mediated DNA hydrolysis preincubated for 14 hrs followed by Fnu4HI addition and measured after 60 mins by SYBR staining-based PAGE analysis; details: Homo sapiens
[9] = tested on: Nucleic Acid; experiment: Binding affinity to GC5(5) of DNA (unknown origin) assessed as inhibition of ACCII mediated DNA hydrolysis at 1 uM preincubated for 14 hrs followed by ACCII addition and measured after 120 mins by SYBR staining-based PAGE analysis; details: Homo sapiens, time 16.0 hrs
[10] = tested on: Nucleic Acid; experiment: Binding affinity to d(CGG)16 of DNA (unknown origin) assessed as inhibition of Fnu4HI mediated DNA hydrolysis at 10 uM preincubated for 14 hrs followed by Fnu4HI addition and measured after 60 mins by SYBR staining-based PAGE analysis; details: Homo sapiens

| Compound | Activity [4] | Activity [9] | also measured |
| --- | --- | --- | --- |
| C[C@H]1CC(=O)c2c(cc3cc(OCCOCC(=O)NO)cc(O)c3c2O)C1 | – | – | Activity [1]: Active; Activity [2]: Active; Activity [3]: Active |
| O=C1CCCc2cc3cc(O)cc(O)c3c(O)c21 | inactive | – | – |
| C[C@H]1CC(=O)c2c(cc3cc(OCCOCCOCC(=O)NO)cc(O)c3c2O)C1 | Active | Active | Activity [8]: inactive |
| C[C@H]1CC(=O)c2c(cc3cc(OCC(=O)NO)cc(O)c3c2O)C1 | inactive | – | Activity [10]: Active |
| O=C(COCCOc1cc(O)c2c(O)c3c(cc2c1)CCCC3=O)NO | – | – | Activity [1]: Active |

Continued, in another order:

| Activity [4] | Activity [9] | Compound | also measured |
| --- | --- | --- | --- |
| Active | – | CCC[C@@H]1C(=O)c2c(cc3cc(OCCOCCOCC(=O)NO)cc(O)c3c2O)C[C@H]1C | Activity [5]: Active; Activity [6]: Active; Activity [7]: inactive |
| inactive | – | C[C@H]1CC(=O)c2c(cc3cc(O)cc(O)c3c2O)C1 | – |
| – | inactive | CCC[C@@H]1C(=O)c2c(cc3cc(OCCOCCOCCOC)cc(O)c3c2O)C[C@H]1C | – |
| – | Active | CCC[C@@H]1C(=O)c2c(cc3cc(OCCOCCOCC(=O)O)cc(O)c3c2O)C[C@H]1C | – |
| inactive | – | CCC[C@@H]1C(=O)c2c(cc3cc(O)cc(O)c3c2O)C[C@H]1C | – |
